Measurements from article PMC7501296, “Rapid and direct control of target protein levels with VHL-recruiting dTAG molecules” (Nature Communications, 2020).
Where “and” joins values, the source holds several entries; their conditions need not be identical. Equal entries are not always repeated.

Key:
Type in all cases: cell-based
[1] = test system: PATU-8902 FKBP12^F36V-KRAS^G12V; KRAS^-/- clone; test: Antiproliferation, PATU-8902 FKBP12F36V-KRASG12V; KRAS-/- clone, 3D-spheroid (CellTiter-Glo); conditions: FKBP12F36V-KRASG12V, KRAS-/-, 3D-spheroid, replicate values
Procedure: (§1) Cell viability was assayed in 2D-adherent or ultra-low adherent 3D-spheroids using CellTiter-Glo (Promega)[6],[15]. Luminescence was measured on an Envision 2104 plate reader (PerkinElmer) and Fluostar Omega Reader (BMG Labtech) and data was analyzed using GraphPad PRISM v8. Synergy assessments were performed using CellTiter-Glo (Promega) with the following modifications to the protocol described in the ref. [34]. In brief, EWS502 cells were plated at 1000 cells per well in 50 µL of appropriate media in 384-well white culture plates (Corning) allowed to adhere overnight, and 100 nL of compounds were added using a Janus Workstation pin tool (PerkinElmer) for 72 h. Cell viability was measured by addition of 10 µL of CellTiter-glo (Promega), followed by incubation for 15 minutes at room temperature. Luminescence was measured on an Envision 2104 plate reader (PerkinElmer) and data was analyzed using GraphPad PRISM v8.

[2] = test system: PATU-8902 LACZ-FKBP12^F36V clone; test: Antiproliferation, PATU-8902 LACZ-FKBP12F36V clone, 2D-monolayer (CellTiter-Glo)
Procedure: as §1

[3] = test system: PATU-8902 LACZ-FKBP12^F36V clone; test: Antiproliferation, PATU-8902 LACZ-FKBP12F36V clone, 3D-spheroid (CellTiter-Glo)
Procedure: as §1

[4] = target: T1, FKBP12^WT-Nluc (Homo sapiens, UniProt P62942); test: FKBP12WT-Nluc dual luciferase assay (293FT); conditions: 293FT FKBP12WT-Nluc, 24 h
T1 construct: expressed in transfected cells; host or cells: 293FT
Procedure: (§2) Dual luciferase assays were performed using 293FT FKBP12^WT-Nluc and FKBP12^F36V-Nluc cells. In brief, cells were plated at 2000 cells per well in 20 µL of appropriate media in 384-well white culture plates (Corning), allowed to adhere overnight, and 100 nL of compounds were added using a Janus Workstation pin tool (PerkinElmer) for 24 h at 37 °C. To evaluate Fluc signal, plates were brought to room temperature, 20 µL of Dual-Glo Reagent (Promega) was added for 10 min and luminescence was measured on an Envision 2104 plate reader (PerkinElmer). Subsequently, 20 µL of Dual-Glo Stop & Glo Reagent (Promega) was added for 10 min and luminescence was again measured to capture Nluc signal. DMSO-normalized ratios of Nluc/Fluc signal was analyzed and plotted using GraphPad PRISM v8[6].

[5] = target: T2, FKBP12^F36V-Nluc (Homo sapiens, UniProt P62942, F37V); test: FKBP12F36V-Nluc dual luciferase assay (293FT); conditions: 293FT FKBP12F36V-Nluc, 24 h
T2 construct: expressed in transfected cells; host or cells: 293FT
Procedure: as §2

[6] = test system: PATU-8902 FKBP12^F36V-KRAS^G12V; KRAS^-/- clone; test: Antiproliferation, PATU-8902 FKBP12F36V-KRASG12V; KRAS-/- clone, 2D-monolayer (CellTiter-Glo)
Procedure: as §1

[7] = log10[compound] (M) -5.69897, replicate values
[8] = log10[compound] (M) -6.19897, replicate values
[9] = log10[compound] (M) -6.69897, replicate values
[10] = log10[compound] (M) -7.19897, replicate values
[11] = log10[compound] (M) -7.69897, replicate values
[12] = log10[compound] (M) -8.19897, replicate values
[13] = log10[compound] (M) -8.69897, replicate values
[14] = log10[compound] (M) -9.19897, replicate values
[15] = log10[compound] (M) -9.69897, replicate values
[16] = log10[compound] (M) -10.199, replicate values
[17] = log10[compound] (M) -5.30103, single replicates
[18] = log10[compound] (M) -5.80103, single replicates
[19] = log10[compound] (M) -6.30103, single replicates
[20] = log10[compound] (M) -6.80103, single replicates
[21] = log10[compound] (M) -7.30103, single replicates
[22] = log10[compound] (M) -7.80103, single replicates
[23] = log10[compound] (M) -8.30103, single replicates
[24] = log10[compound] (M) -8.80103, single replicates
[25] = log10[compound] (M) -9.30103, single replicates
[26] = log10[compound] (M) -9.80103, single replicates

T1 sequence (P62942 2-108 limits assumed): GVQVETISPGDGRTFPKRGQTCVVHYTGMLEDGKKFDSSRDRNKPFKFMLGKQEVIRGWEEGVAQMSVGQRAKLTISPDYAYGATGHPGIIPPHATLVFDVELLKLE
T2 sequence (P62942 2-108 F37V limits assumed): as the sequence (P62942 2-108 limits assumed) above, with F36V counted along it

## CC[C@H](C(=O)N1CCCC[C@H]1C(=O)O[C@H](CCc1ccc(OC)c(OC)c1)c1ccccc1OCC(=O)NCCCCCCCCNc1ccc2c(c1)C(=O)N(C1CCCNC1=O)C2=O)c1cc(OC)c(OC)c(OC)c1 (stereo partly drawn) [dTAG-47-NEG]
[1]; log10[compound] (M) -5.69897
  DMSO-normalized antiproliferation: 82.482 and 87.6886 and 103.208 and 99.4884
[1]; log10[compound] (M) -6.19897
  DMSO-normalized antiproliferation: 113.805 and 93.9254 and 98.397 and 96.9436
[1]; log10[compound] (M) -6.69897
  DMSO-normalized antiproliferation: 123.227 and 117.041 and 133.19 and 118.656
[1]; log10[compound] (M) -7.19897
  DMSO-normalized antiproliferation: 81.3571 and 110.96 and 121.028 and 111.088
[1]; log10[compound] (M) -7.69897
  DMSO-normalized antiproliferation: 122.42 and 111.862 and 100.29 and 122.927
[1]; log10[compound] (M) -8.19897
  DMSO-normalized antiproliferation: 142.5 and 118.093 and 120.226 and 127.732
[1]; log10[compound] (M) -8.69897
  DMSO-normalized antiproliferation: 121.028 and 116.139 and 119.196 and 128.785
[1]; log10[compound] (M) -9.19897
  DMSO-normalized antiproliferation: 130.238 and 109.673 and 113.755 and 125.733
[1]; log10[compound] (M) -9.69897
  DMSO-normalized antiproliferation: 131.246 and 139.231 and 145.63 and 98.1297
[1]; log10[compound] (M) -10.199
  DMSO-normalized antiproliferation: 85.3442 and 82.6434 and 122.826 and 96.2419
[2]; [7]
  DMSO-normalized antiproliferation: 66.1984 and 57.9546 and 80.6556 and 62.9228
[2]; [8]
  DMSO-normalized antiproliferation: 65.6828 and 85.4625 and 78.6518 and 76.5663
[2]; [9]
  DMSO-normalized antiproliferation: 102.61 and 78.6871 and 110.55 and 102.23
[2]; [10]
  DMSO-normalized antiproliferation: 104.837 and 92.9898 and 109.382 and 132.676
[2]; [11]
  DMSO-normalized antiproliferation: 141.282 and 157.373 and 114.442 and 100.315
[2]; [12]
  DMSO-normalized antiproliferation: 95.0388 and 126.489 and 147.158 and 156.144
[2]; [13]
  DMSO-normalized antiproliferation: 96.771 and 104.289 and 112.53 and 88.7912
[2]; [14]
  DMSO-normalized antiproliferation: 117.441 and 113.828 and 97.736 and 88.8651
[2]; [15]
  DMSO-normalized antiproliferation: 104.694 and 108.624 and 153.334 and 121.648
[2]; [16]
  DMSO-normalized antiproliferation: 108.17 and 124.096 and 109.419 and 107.694
[3]; [7]
  DMSO-normalized antiproliferation: 97.4751 and 103.304 and 87.3281 and 98.4167
[3]; [8]
  DMSO-normalized antiproliferation: 115.352 and 92.3949 and 111.46 and 98.7799
[3]; [9]
  DMSO-normalized antiproliferation: 115.675 and 135.633 and 120.527 and 101.762
[3]; [10]
  DMSO-normalized antiproliferation: 132.781 and 104.479 and 141.691 and 94.0763
[3]; [11]
  DMSO-normalized antiproliferation: 113.77 and 136.938 and 126.087 and 111.72
[3]; [12]
  DMSO-normalized antiproliferation: 141.265 and 116.402 and 127.835 and 120.491
[3]; [13]
  DMSO-normalized antiproliferation: 117.15 and 123.8 and 115.155 and 128.638
[3]; [14]
  DMSO-normalized antiproliferation: 109.537 and 110.734 and 119.818 and 124.491
[3]; [15]
  DMSO-normalized antiproliferation: 101.506 and 115.774 and 112.487 and 105.932
[3]; [16]
  DMSO-normalized antiproliferation: 91.3412 and 111.541 and 123.365 and 101.901
[4]; [17]
  DMSO-normalized ratio of Nluc/Fluc signal: 112.983 and 133.743 and 109.836 and 118.552
[4]; [18]
  DMSO-normalized ratio of Nluc/Fluc signal: 88.6495 and 108.291 and 97.1172 and 97.9891
[4]; [19]
  DMSO-normalized ratio of Nluc/Fluc signal: 84.7288 and 98.5773 and 69.8656 and 85.4355
[4]; [20]
  DMSO-normalized ratio of Nluc/Fluc signal: 111.882 and 117.981 and 82.1602 and 97.6002
[4]; [21]
  DMSO-normalized ratio of Nluc/Fluc signal: 80.9372 and 116.345 and 96.4274 and 100.006
[4]; [22]
  DMSO-normalized ratio of Nluc/Fluc signal: 91.8268 and 107.899 and 89.5705 and 101.339
[4]; [23]
  DMSO-normalized ratio of Nluc/Fluc signal: 96.8786 and 106.696 and 109.119 and 135.476
[4]; [24]
  DMSO-normalized ratio of Nluc/Fluc signal: 100.791 and 113.508 and 74.3676 and 105.961
[4]; [25]
  DMSO-normalized ratio of Nluc/Fluc signal: 140.604 and 140.668 and 98.5907 and 115.954
[4]; [26]
  DMSO-normalized ratio of Nluc/Fluc signal: 87.4488 and 119.502 and 82.5871 and 99.1801
[5]; [17]
  DMSO-normalized ratio of Nluc/Fluc signal: 107.204 and 133.65 and 125.111 and 106.713
[5]; [18]
  DMSO-normalized ratio of Nluc/Fluc signal: 105.202 and 100.221 and 87.7709 and 98.1806
[5]; [19]
  DMSO-normalized ratio of Nluc/Fluc signal: 114.516 and 112.689 and 63.1557 and 96.6176
[5]; [20]
  DMSO-normalized ratio of Nluc/Fluc signal: 115.914 and 94.4993 and 79.2868 and 83.2258
[5]; [21]
  DMSO-normalized ratio of Nluc/Fluc signal: 95.8358 and 90.9039 and 76.6637 and 114.52
[5]; [22]
  DMSO-normalized ratio of Nluc/Fluc signal: 93.9184 and 139.979 and 82.2221 and 91.2143
[5]; [23]
  DMSO-normalized ratio of Nluc/Fluc signal: 91.746 and 110.613 and 89.992 and 115.75
[5]; [24]
  DMSO-normalized ratio of Nluc/Fluc signal: 108.43 and 84.8167 and 129.223 and 114.161
[5]; [25]
  DMSO-normalized ratio of Nluc/Fluc signal: 128.159 and 120.38 and 100.065 and 103.942
[5]; [26]
  DMSO-normalized ratio of Nluc/Fluc signal: 95.5174 and 90.4935 and 78.1755 and 112.193
[6]; [7]
  DMSO-normalized antiproliferation: 74.7022 and 73.4799 and 58.8574 and 61.1381
[6]; [8]
  DMSO-normalized antiproliferation: 87.1466 and 90.577 and 94.4269 and 106.738
[6]; [9]
  DMSO-normalized antiproliferation: 79.5247 and 86.4598 and 105.965 and 87.3723
[6]; [10]
  DMSO-normalized antiproliferation: 125.17 and 98.7432 and 116.205 and 122.113
[6]; [11]
  DMSO-normalized antiproliferation: 90.1708 and 148.45 and 111.91 and 91.8745
[6]; [12]
  DMSO-normalized antiproliferation: 119.425 and 116.853 and 127.987 and 145.045
[6]; [13]
  DMSO-normalized antiproliferation: 87.2626 and 88.668 and 110.555 and 114.959
[6]; [14]
  DMSO-normalized antiproliferation: 135.954 and 152.721 and 117.778 and 94.3712
[6]; [15]
  DMSO-normalized antiproliferation: 100.893 and 117.34 and 101.502 and 86.7015
[6]; [16]
  DMSO-normalized antiproliferation: 99.6176 and 90.8045 and 95.2889 and 85.7881
